This passage reports IC50 results from patent publication US20230019491A1, “PYRIMIDINE TBK/IKKe INHIBITOR COMPOUNDS AND USES THEREOF” (Merck Patent GmbH, priority 2017, published 2023).

One test concerns the target T1, TBK1 (Homo sapiens, UniProt Q9UHD2).
T1 sequence (Q9UHD2 1-729): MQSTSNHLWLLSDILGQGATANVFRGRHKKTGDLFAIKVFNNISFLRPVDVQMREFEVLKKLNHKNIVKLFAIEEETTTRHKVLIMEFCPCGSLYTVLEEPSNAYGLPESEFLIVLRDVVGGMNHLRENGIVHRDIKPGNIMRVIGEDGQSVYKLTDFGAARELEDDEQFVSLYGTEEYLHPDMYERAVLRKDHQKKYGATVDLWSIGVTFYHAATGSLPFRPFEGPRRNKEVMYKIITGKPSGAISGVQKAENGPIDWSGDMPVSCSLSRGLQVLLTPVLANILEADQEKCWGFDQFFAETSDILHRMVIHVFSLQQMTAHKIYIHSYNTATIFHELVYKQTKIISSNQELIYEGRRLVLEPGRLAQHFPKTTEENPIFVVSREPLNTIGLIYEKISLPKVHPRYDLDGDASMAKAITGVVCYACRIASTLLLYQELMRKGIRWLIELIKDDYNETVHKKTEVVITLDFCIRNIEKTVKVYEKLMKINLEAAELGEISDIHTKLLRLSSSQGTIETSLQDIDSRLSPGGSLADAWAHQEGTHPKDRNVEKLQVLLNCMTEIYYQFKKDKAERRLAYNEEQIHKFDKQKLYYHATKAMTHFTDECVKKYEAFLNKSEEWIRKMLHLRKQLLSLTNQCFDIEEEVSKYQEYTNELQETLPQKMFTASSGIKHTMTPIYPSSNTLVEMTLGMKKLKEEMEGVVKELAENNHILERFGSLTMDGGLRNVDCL
The test can be described thus: TBK biochemical assay. Conditions: 10 point 1:4 dose response, 30 uM top concentration, 90 min at 25° C., LabChip EZ Reader II; read-out: TBK1_IC50. In a few lines: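 Substrate and product were separated and quantified by microfluidic mobility-shift read (LabChip). 10 uM staurosporine served as the full-inhibition control, and the reference compound was tested from 1 uM final.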

The next test has as its target T2, IKKε (Homo sapiens, UniProt Q14164).
T2 sequence (Q14164 1-716): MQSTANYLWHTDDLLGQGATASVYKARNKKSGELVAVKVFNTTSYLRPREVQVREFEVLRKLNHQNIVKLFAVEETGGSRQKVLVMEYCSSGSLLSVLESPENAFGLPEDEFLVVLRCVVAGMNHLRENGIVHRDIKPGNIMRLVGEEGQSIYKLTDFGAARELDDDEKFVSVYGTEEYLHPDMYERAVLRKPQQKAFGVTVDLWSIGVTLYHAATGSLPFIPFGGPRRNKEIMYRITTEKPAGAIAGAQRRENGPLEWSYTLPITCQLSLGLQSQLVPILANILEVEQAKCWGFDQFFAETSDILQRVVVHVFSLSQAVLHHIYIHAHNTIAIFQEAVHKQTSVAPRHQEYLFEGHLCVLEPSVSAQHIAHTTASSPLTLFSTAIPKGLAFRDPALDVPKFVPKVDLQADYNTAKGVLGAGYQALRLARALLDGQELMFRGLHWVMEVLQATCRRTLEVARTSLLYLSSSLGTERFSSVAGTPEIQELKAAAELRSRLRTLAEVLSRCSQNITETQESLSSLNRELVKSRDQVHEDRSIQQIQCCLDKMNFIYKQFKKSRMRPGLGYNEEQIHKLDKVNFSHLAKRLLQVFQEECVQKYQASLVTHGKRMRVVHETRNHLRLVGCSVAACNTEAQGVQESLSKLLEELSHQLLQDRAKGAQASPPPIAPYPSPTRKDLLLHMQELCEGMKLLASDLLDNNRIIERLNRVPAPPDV
The test can be described thus: IKKε biochemical assay. To be noted: 10 point 1:4 dose response, 30 uM top concentration, 90 min at 25° C., LabChip EZ Reader II; read-out: IKKε_IC50. Summed up:
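Compounds in 1% DMSO final were incubated with IKKε enzyme and substrate at 25° C. for 90 min, then stopped. Substrate and product peaks were resolved by LabChip EZ Reader II mobility-shift read-out. Staurosporine at 10 uM final served as the full-inhibition control.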

Where a name gives a salt, the structure may show the parent alone.

Take `C[C@@H](O)C(=O)N1CCC(Oc2ccc(-c3ccnc(Nc4ccc(C5CCN(C)CC5)cc4)n3)cc2C#N)C(F)(F)C1` (stereo partly drawn) [Example 145, 2-([3,3-difluoro-1-[(2R)-2-hydroxypropanoyl]piperidin-4-yl]oxy)-5-(2-[[4-(1-methylpiperidin-4-yl)phenyl]amino]pyrimidin-4-yl)benzonitrile]: the IC50 on TBK1 and at IKKε was < 100 nM throughout.
For `COc1nc(Nc2nccc(-c3ccc(OC4CCN(C(=O)C(C)O)CC4(F)F)c(C#N)c3)n2)ccc1C1CCN(C)CC1` (stereo not drawn) [Example 146, 2-[[3,3-difluoro-1-(2-hydroxypropanoyl)piperidin-4-yl]oxy]-5-(2-[[6-methoxy-5-(1-methylpiperidin-4-yl)pyridin-2-yl]amino]pyrimidin-4-yl)benzonitrile], the IC50 on TBK1 and at IKKε was < 100 nM each time.
`COc1nc(Nc2nccc(-c3ccc(OC4CCN(C(=O)[C@@H](C)O)CC4(F)F)c(C#N)c3)n2)ccc1C1CCN(C)CC1` (stereo partly drawn) [Example 147, 2-([3,3-difluoro-1-[(2R)-2-hydroxypropanoyl]piperidin-4-yl]oxy)-5-(2-[[6-methoxy-5-(1-methylpiperidin-4-yl)pyridin-2-yl]amino]pyrimidin-4-yl)benzonitrile]: the IC50 on TBK1 and on IKKε was < 100 nM each time.
As to `CN1CCC(c2ccc(Nc3nccc(-c4ccc(OC5CCN(C(=O)CO)CC5(F)F)c(C#N)c4)n3)cc2)CC1` (stereo not drawn) [Example 148, 2-[[3,3-difluoro-1-(2-hydroxyacetyl)piperidin-4-yl]oxy]-5-(2-[[4-(1-methylpiperidin-4-yl)phenyl]amino]pyrimidin-4-yl)benzonitrile], the IC50 at TBK1 and on IKKε was < 100 nM throughout.
Regarding `CC(O)C(=O)N1CCC(Oc2ccc(-c3ccnc(Nc4ccc(C5CCN(C)CC5)cc4)n3)cc2C#N)C(F)(F)C1` (stereo not drawn) [Example 149, 2-[[3,3-difluoro-1-(2-hydroxypropanoyl)piperidin-4-yl]oxy]-5-(2-[[4-(1-methylpiperidin-4-yl)phenyl]amino]pyrimidin-4-yl)benzonitrile], the IC50 on TBK1 and at IKKε was < 100 nM in each case.
With `N#Cc1cc(-c2ccnc(Nc3ccc(C4CCN(C5COC5)CC4)cc3)n2)ccc1OC1CCNCC1(F)F` (stereo not drawn) [Example 150, 2-(3,3-Difluoro-piperidin-4-yloxy)-5-{2-[4-(1-oxetan-3-yl-piperidin-4-yl)-phenylamino]-pyrimidin-4-yl}-benzonitrile hydrochloride], the IC50 on TBK1 and at IKKε was < 100 nM each time.
For the molecule `N#Cc1cc(-c2ccnc(Nc3ccc(C4CCN(C5COC5)CC4)cc3)n2)ccc1OC1CCOCC1` [Example 151, 5-{2-[4-(1-Oxetan-3-yl-piperidin-4-yl)-phenylamino]-pyrimidin-4-yl}-2-(tetrahydro-pyran-4-yloxy)-benzonitrile], the IC50 on TBK1 and on IKKε was < 100 nM in each case.
As for `COc1nc(Nc2nccc(-c3ccc(OC4CCN(C(=O)[C@H](C)O)CC4(F)F)c(C#N)c3)n2)ccc1C1CCN(C2COC2)CC1` (stereo partly drawn) [Example 152, 2-[3,3-Difluoro-1-((S)-2-hydroxy-propionyl)-piperidin-4-yloxy]-5-[2-(2-methoxy-1′-oxetan-3-yl-1′,2′,3′,4′,5′,6′-hexahydro-[3,4′]bipyridinyl-6-ylamino)-pyrimidin-4-yl]-benzonitrile], the IC50 on TBK1 and at IKKε was < 100 nM each time.
For the molecule `COc1nc(Nc2nccc(-c3ccc(OC4CCN(C(=O)[C@@H](O)CO)CC4(F)F)c(C#N)c3)n2)ccc1C1CCN(C2COC2)CC1` (stereo partly drawn) [Example 153, 2-[1-((S)-2,3-Dihydroxy-propionyl)-3,3-difluoro-piperidin-4-yloxy]-5-[2-(2-methoxy-1′-oxetan-3-yl-1′,2′,3′,4′,5′,6′-hexahydro-[3,4′]bipyridinyl-6-ylamino)-pyrimidin-4-yl]-benzonitrile], the IC50 at TBK1 and at IKKε was < 100 nM throughout.
As to `COc1nc(Nc2nccc(-c3ccc(OC4CCN(C(=O)CO)CC4(F)F)c(C#N)c3)n2)ccc1C1CCN(C2COC2)CC1` (stereo not drawn) [Example 154, 2-[3,3-Difluoro-1-(2-hydroxy-acetyl)-piperidin-4-yloxy]-5-[2-(2-methoxy-1′-oxetan-3-yl-1′,2′,3′,4′,5′,6′-hexahydro-[3,4′]bipyridinyl-6-ylamino)-pyrimidin-4-yl]-benzonitrile], the IC50 at TBK1 and at IKKε was < 100 nM in each case.
Turning to `N#Cc1cc(-c2ccnc(Nc3ccc(C4CCN(C5COC5)C4)cc3)n2)ccc1OC1CCNCC1(F)F` (stereo not drawn) [Example 155, 2-(3,3-Difluoro-piperidin-4-yloxy)-5-{2-[4-(1-oxetan-3-yl-pyrrolidin-3-yl)-phenylamino]-pyrimidin-4-yl}-benzonitrile hydrochloride], the IC50 on TBK1 and at IKKε was < 100 nM in each case.
`N#Cc1cc(-c2ccnc(Nc3cccc(C4CCN(C(CO)CO)CC4)c3)n2)ccc1OC1CCNCC1(F)F` (stereo not drawn) [Example 156, 2-(3,3-Difluoro-piperidin-4-yloxy)-5-(2-{3-[1-(2-hydroxy-1-hydroxymethyl-ethyl)-piperidin-4-yl]-phenylamino}-pyrimidin-4-yl)-benzonitrile]: the IC50 on TBK1 and on IKKε was < 100 nM each time.
`C[C@H](O)C(=O)N1CCC(Oc2ccc(-c3ccnc(Nc4cccc(C5CCN(C(CO)CO)CC5)c4)n3)cc2C#N)C(F)(F)C1` (stereo partly drawn) [Example 157, 2-[3,3-Difluoro-1-((S)-2-hydroxy-propionyl)-piperidin-4-yloxy]-5-(2-{3-[1-(2-hydroxy-1-hydroxymethyl-ethyl)-piperidin-4-yl]-phenylamino}-pyrimidin-4-yl)-benzonitrile]: the IC50 on TBK1 and at IKKε was < 100 nM in each case.
In the case of `C[C@@H](O)C(=O)N1CCC(Oc2ccc(-c3ccnc(Nc4cccc(C5CCN(C(CO)CO)CC5)c4)n3)cc2C#N)C(F)(F)C1` (stereo partly drawn) [Example 158, 2-[3,3-Difluoro-1-((R)-2-hydroxy-propionyl)-piperidin-4-yloxy]-5-(2-{3-[1-(2-hydroxy-1-hydroxymethyl-ethyl)-piperidin-4-yl]-phenylamino}-pyrimidin-4-yl)-benzonitrile], the IC50 at TBK1 and at IKKε was < 100 nM throughout.
For `N#Cc1cc(-c2ccnc(Nc3ccc(N4CCN(C5COC5)CC4)cc3)n2)ccc1OC1COC1` [Example 159, 5-[2-([4-[4-(oxetan-3-yl)piperazin-1-yl]phenyl]amino)pyrimidin-4-yl]-2-(oxetan-3-yloxy)benzonitrile], the IC50 on TBK1 and at IKKε was < 100 nM throughout.
In the case of `COc1nc(Nc2nccc(-c3ccc(OC4COC4)c(C#N)c3)n2)ccc1N1CCN(C2COC2)CC1` [Example 160, 5-[2-([6-methoxy-5-[4-(oxetan-3-yl)piperazin-1-yl]pyridin-2-yl]amino)pyrimidin-4-yl]-2-(oxetan-3-yloxy)benzonitrile], the IC50 at TBK1 and at IKKε was 100 to 1000 nM in each case.
As for `N#Cc1cc(-c2ccnc(Nc3ccc(N4CCN(C5COC5)CC4)cc3)n2)ccc1OC1CCOC1` (stereo not drawn) [Example 161, 5-[2-([4-[4-(oxetan-3-yl)piperazin-1-yl]phenyl]amino)pyrimidin-4-yl]-2-(oxolan-3-yloxy)benzonitrile], the IC50 at TBK1 and on IKKε was < 100 nM each time.
As to `COc1nc(Nc2nccc(-c3ccc(OC4CCOC4)c(C#N)c3)n2)ccc1N1CCN(C2COC2)CC1` (stereo not drawn) [Example 162, 5-[2-([6-methoxy-5-[4-(oxetan-3-yl)piperazin-1-yl]pyridin-2-yl]amino)pyrimidin-4-yl]-2-(oxolan-3-yloxy)benzonitrile], the IC50 on TBK1 and at IKKε was < 100 nM each time.
